# Reference: patent EP0006452A1, “Hypoglycemic phenylpropynylamino benzoic acids, their salts, pharmaceutical compositions containing said compounds and their application” (THE DOW CHEMICAL COMPANY, priority 1978, dated 1980)
# Tested on: alanine-induced hyperglycemic mice
# Experiment: Hypoglycemic activity in alanine-induced hyperglycemic mice (serum glucose lowering)
# Type: in vivo
# Conditions: Dosage Level 7.5 mg/kg intraperitoneal; fasted male Swiss-Webster mice; 10 m moles/kg L-alanine i.p. 15 min later; serum glucose 60 min after compound; 100% = lowering to fasting glucose level
# Procedure: Alanine is the most glucogenic of the amino acids and also stimulates gluconeogensis in normal animals. Animals suffering from diabetes show an exaggerated hyperglycemic response to a protein or amino acid meal, therefore the hyperglycemic state induced by alanine closely parallels the response of a diabetic mammal.
# Fifteen minutes later the same mice were injected intraperitoneally with 10 m moles/kg body weight of L-alanine. […] The control consisted of both fasted mice and mice injected with alanine only. The results are expressed as percent lowering of serum glucose from the alanine induced hyperglycemic level to the fasted control glucose level, i.e. lowering to the fasting glucose level is 100% lowering.
row,SMILES,percent lowering of serum glucose as compared to controls [%]
1,"O=C(O)c1ccc(NCC#Cc2ccccc2)cc1 [Example 1, 4-((3-phenyl-2-propynyl)-amino)benzoic acid]",36
2,"O=C([O-])c1ccc(NCC#Cc2ccccc2)cc1.[Na+] [Example 2, 4-((3-phenyl-2-propynyl)-amino)benzoic acid-sodium salt]",44
3,"O=C(O)c1ccc(NCC#Cc2ccc(F)cc2)cc1 [Example 3, 4((3-(4-fluoro)phenyl-2-propynyl)amino)benzoic acid]",2
4,"Cc1ccc(C#CCNc2ccc(C(=O)O)cc2)cc1 [Example 5, 4-((3-(4-Methyl)phenyl-2-propynyl)amino)benzoic acid]",9

# Same assay, conditions: Dosage Level 15 mg/kg intraperitoneal; fasted male Swiss-Webster mice; 10 m moles/kg L-alanine i.p. 15 min later; serum glucose 60 min after compound; 100% = lowering to fasting glucose level
row,SMILES,percent lowering of serum glucose as compared to controls [%]
1,"O=C(O)c1ccc(NCC#Cc2ccccc2)cc1 [Example 1, 4-((3-phenyl-2-propynyl)-amino)benzoic acid]",79
2,"O=C([O-])c1ccc(NCC#Cc2ccccc2)cc1.[Na+] [Example 2, 4-((3-phenyl-2-propynyl)-amino)benzoic acid-sodium salt]",69
3,"O=C(O)c1ccc(NCC#Cc2ccc(F)cc2)cc1 [Example 3, 4((3-(4-fluoro)phenyl-2-propynyl)amino)benzoic acid]",66
4,"Cc1ccc(C#CCNc2ccc(C(=O)O)cc2)cc1 [Example 5, 4-((3-(4-Methyl)phenyl-2-propynyl)amino)benzoic acid]",15

# Same assay, conditions: Dosage Level 30 mg/kg intraperitoneal; fasted male Swiss-Webster mice; 10 m moles/kg L-alanine i.p. 15 min later; serum glucose 60 min after compound; 100% = lowering to fasting glucose level
row,SMILES,percent lowering of serum glucose as compared to controls [%]
1,"O=C(O)c1ccc(NCC#Cc2ccccc2)cc1 [Example 1, 4-((3-phenyl-2-propynyl)-amino)benzoic acid]",98
2,"O=C([O-])c1ccc(NCC#Cc2ccccc2)cc1.[Na+] [Example 2, 4-((3-phenyl-2-propynyl)-amino)benzoic acid-sodium salt]",114
3,"O=C(O)c1ccc(NCC#Cc2ccc(F)cc2)cc1 [Example 3, 4((3-(4-fluoro)phenyl-2-propynyl)amino)benzoic acid]",91
4,"Cc1ccc(C#CCNc2ccc(C(=O)O)cc2)cc1 [Example 5, 4-((3-(4-Methyl)phenyl-2-propynyl)amino)benzoic acid]",118

# Same assay, conditions: Dosage Level 60 mg/kg intraperitoneal; fasted male Swiss-Webster mice; 10 m moles/kg L-alanine i.p. 15 min later; serum glucose 60 min after compound; 100% = lowering to fasting glucose level
row,SMILES,percent lowering of serum glucose as compared to controls [%]
1,"O=C(O)c1ccc(NCC#Cc2ccccc2)cc1 [Example 1, 4-((3-phenyl-2-propynyl)-amino)benzoic acid]",132
2,"O=C([O-])c1ccc(NCC#Cc2ccccc2)cc1.[Na+] [Example 2, 4-((3-phenyl-2-propynyl)-amino)benzoic acid-sodium salt]",139
3,"O=C(O)c1ccc(NCC#Cc2ccc(F)cc2)cc1 [Example 3, 4((3-(4-fluoro)phenyl-2-propynyl)amino)benzoic acid]",172
4,"O=C(O)c1ccc(NCC#Cc2ccc(Cl)cc2)cc1 [Example 4, 4-((3-(4-Chloro)phenyl-2-propynyl)amino)-ben zoic acid]",39
5,"Cc1ccc(C#CCNc2ccc(C(=O)O)cc2)cc1 [Example 5, 4-((3-(4-Methyl)phenyl-2-propynyl)amino)benzoic acid]",76

# Same assay, conditions: Mus musculus, ip, 1 h; intraperitoneal; lowering of serum glucose in alanine-induced hyperglycemic fasted male Swiss-Webster mice; read-out: ED50 (effective dose)
row,SMILES,ED50 [mg/kg]
1,"O=C(O)c1ccc(NCC#Cc2ccccc2)cc1 [Example 1, 4-((3-phenyl-2-propynyl)-amino)benzoic acid]",8
2,"O=C(O)c1ccc(NCC#Cc2ccc(F)cc2)cc1 [Example 3, 4((3-(4-fluoro)phenyl-2-propynyl)amino)benzoic acid]",18
3,"Cc1ccc(C#CCNc2ccc(C(=O)O)cc2)cc1 [Example 5, 4-((3-(4-Methyl)phenyl-2-propynyl)amino)benzoic acid]",21

# Same assay, conditions: summary of Table I; lowering the amount of glucose in the serum of the test animals
row,SMILES,hypoglycemic activity (in words)
1,"O=C([O-])c1ccc(NCC#Cc2ccccc2)cc1.[Na+] [Example 2, 4-((3-phenyl-2-propynyl)-amino)benzoic acid-sodium salt]",most active
